Measurements: publication PMC10541456, “A phase I, single‐center, open‐label study to investigate the absorption, distribution, metabolism and excretion of encorafenib following a single oral dose of 100 mg [ ^14C] encorafenib in healthy male subjects” (Pharmacology Research & Perspectives, 2023)

How the values were obtained:
[1] = Metabolite profiles in plasma (UPLC, radioactivity detection, MS); assay type: in vivo, human; settings: for Mean (range) Circulating Radioactivity in Plasma Based on AUC0-24: 100 mg oral [14C] encorafenib; for Mean (range) Circulating Radioactivity in Plasma Based on AUC0-24 (%): M12.8 value is sum of M12.8 and M13.2
Procedure: To the thawed plasma samples (1.5 mL plasma/ time points) two volumes of ice‐cold acetonitrile:ethanol:acetic acid (90:10:0.1, v/v) were added, followed by vortex mixing (10 min) and sonication (10 min). After centrifugation, the supernatants (4.2 mL) were evaporated to near dryness under a gentle stream of nitrogen on a TurboVap LV (Zymark Corp.). The residues were reconstituted in 80 μL of methanol:water:acetic acid (50:50:0.1, v/v) and 45 μL were injected into the ultra‐performance liquid chromatography (UPLC) system with off‐line radioactivity detection.
Characterization and quantification of the metabolites of encorafenib in select human plasma and excreta samples were performed by the Department of DMPK (Drug Metabolism and Pharmacokinetics) at the Novartis Institutes for Biomedical Research (East Hanover, NJ, USA) using liquid chromatography (LC) coupled to radioactivity detectors and mass spectrometers (MS).
The analytical system consisted of a Waters ACQUITY UPLC system (Waters), equipped with a Phenomenex Luna PFP column (3 μm, 4.6 × 150 mm) (Phenomenex) and a guard column of the same phase, both maintained at a temperature of 30°C. The mobile phases consisted of 10 mM ammonium acetate containing 0.1% formic acid (v/v) (solvent A) and CH3CN (solvent B). The total run time was 80 min. A linear gradient elution program was used with a flow rate of 1 mL/min as described in Table 1.
The UPLC effluent was split 4:1, with […] of the total flow introduced to the mass spectrometer for mass spectral analysis and the remaining flow used for radioactivity detection.
For off‐line radioactivity detection, the eluant was collected into 96‐well Lumaplate (Packard Instrument Co) microplates using a Collect Pal fraction collector (Leap Technologies) with a collection time of 10 seconds per well. The LumaPlates were sealed after drying and counted for 10–50 min per well on a Packard Topcount microplate scintillation counter. The structural characterization of metabolites was carried out using the above UPLC profiling method coupled to a two‐channel Z‐spray (LockSprayTM) time‐of‐flight mass spectrometer (Synapt MS). Leucine enkephalin was used as the mass reference standard for exact mass measurements and was delivered via the second spray channel at a flow rate of 5 μL/minute. The mass spectrometer was operated at a resolution of ~10 000 m/ΔmFWHM with spectra being collected from 100 to 1000 amu. The ionization technique employed was positive electrospray. The sprayer voltage was kept at 3100 V and the sampling cone voltage was kept at a potential of 20 V. For the time‐of‐flight MS/MS experiments, trap energies of 25 to 45 eV and transfer energy of 15 eV were used with argon as the collision gas.
All radioactivity data were transferred to Laura software (version 4.2.2.24, Lab Logic Ltd, UK) to generate and integrate radio‐chromatograms. Radioactive peaks for quantitative analysis were manually selected from the plots. The radioactivity in the region encompassing the beginning and end of the peak was summed. All further calculations were based on radioactivity.
The percent of radioactivity (%RA) in a particular peak, Z, was calculated as follows in Equation (1): (1) %RAinZ=DPMin PeakZ/totalDPMinallintegrated peaksx100
The concentration or amount of each component was calculated as % RA (expressed as a fraction) multiplied by the total concentration of radioactivity in plasma, or the percent of dose in the excreta.

[2] = design: method as in data on file; settings: ref data on file; cited from earlier work
[3] = system: A375 (BRAF V600E) melanoma cell proliferation; design: method as in data on file; settings: fraction of encorafenib potency; ref data on file; cited from earlier work

In the case of `CC(C)n1cc(-c2ccnc(N)n2)c(-c2cc(Cl)cc(NS(C)(=O)=O)c2F)n1` [M42.5A], the “Mean (range) Circulating Radioactivity in Plasma Based on AUC0-24” value [1] is given as 2430 (1740–3320) ngEq/mL*h, the “Mean (range) Circulating Radioactivity in Plasma Based on AUC0-24 (%)” value [1] is given as 15.5 (13.4–17.4) % and the “In vitro safety pharmacology result” value [2] is given as “no significant safety signal”. The “Potency relative to encorafenib against A375 cell proliferation” value [3] was “approximately 1/30”.

With `CC(O)CNc1nccc(-c2cn(C(C)C)nc2-c2cc(Cl)cc(NS(C)(=O)=O)c2F)n1` (stereo not drawn) [M44] the “Mean (range) Circulating Radioactivity in Plasma Based on AUC0-24” value [1] was 806 (525–1250) ngEq/mL*h and the “Mean (range) Circulating Radioactivity in Plasma Based on AUC0-24 (%)” value [1] was 5.09 (4.02–6.36) %.
